Laboratory results taken from patent US12582656B2, “Nucleotide analogues” (R.G.C.C. Holdings AG, priority 2020, dated 2026).

Columns and labels:
Polymerase = assay: SYBR Green qPCR with modified adenosine analogues added, Ct measured; type: biochemical; settings: for effect on amplification of the template (qPCR): dose-dependent, efficacy higher for phosphate than hydroxyl at same concentration
Procedure: In a second set of experiments, the modified adenosine analogues were added in a SYBR Green qPCR mix, and reactions performed using the same template and primers as above. The Ct (Threshold Cycle) parameter was measured for each condition. The Ct is the cycle number at which the fluorescence generated within a reaction crosses the fluorescence threshold. The higher the Ct, the lower the amount of product (or lower expression).
At the same concentration, the efficacy of inhibition of amplification was higher for phosphate than hydroxyl.

[1] = target: SARS-COV-2 polymerase NSP12 (Severe acute respiratory syndrome coronavirus 2, UniProt P0DTD1); assay: SARS-CoV-2 RNA polymerization assay with RdRp catalytic domain, PAGE gel (FIG. 2); type: biochemical; settings: rATP split 50:50 with compound, 37° C. for 2 h
[2] = gene 18SrRNA, substance 0.075 mM (Final)
[3] = gene 18SrRNA, substance 0.15 mM (Final)
[4] = gene 18SrRNA, substance 0.3 mM (Final)
[5] = gene ACTB, substance 0.075 mM (Final)
[6] = gene ACTB, substance 0.15 mM (Final)
[7] = gene ACTB, substance 0.3 mM (Final)

Row | Structure (SMILES) | effect on amplification of the template (qPCR) (Polymerase) | Ct Mean (Polymerase; [2]) | Ct Mean (Polymerase; [3]) | Ct Mean (Polymerase; [4]) | Ct Mean (Polymerase; [5]) | Ct Mean (Polymerase; [6]) | Ct Mean (Polymerase; [7]) | in vitro replication of the SARS-CoV-2 RNA via the SARS-CoV-2 RNA polymerase [1]
1 | Nc1ncnc2c1ncn2-c1nc(O)c2ccccc2n1 [Compound A, 2-(6-amino-9H-purin-9-yl)quinazolin-4-ol] | decrease of the amplification of the template | 12.88 | 13.43 | 14.84 | 20.08 | 20.55 | 21.14 | inhibits
2 | Nc1ncnc2c1ncn2-c1nc(O)c2ccc(F)cc2n1 [Compound B, 2-(6-amino-9H-purin-9-yl)-7-fluoro-quinazolin-4-ol] | – | – | – | – | – | – | – | inhibits
3 | Nc1ncnc2c1ncn2-c1nc(OP(=O)(O)O)c2ccccc2n1 [Compound C, 2-(6-amino-9H-purin-9-yl)quinazolin-4-yl dihydrogen phosphate] | decrease of the amplification of the template | 12.78 | 13.70 | 15.98 | 20.15 | 20.91 | 21.82 | inhibits
4 | Nc1ncnc2c1ncn2C1OC(COP(=O)(O)OP(=O)(O)OP(=O)(O)O)CC1O.[Na] (stereo not drawn) [commercial inhibitor, Cordycepin 5′-triphosphate sodium salt, reference compound] | – | – | – | – | – | – | – | polymerization blocked
